In ChEMBL document CHEMBL4256946, “Thiourea compounds and their use as inhibitors of sirt2 or sirt5” (2016):
Activity calls are given as the source filed them. The rule behind the calls is not given here.

Key:
[1] = molecular target: T1, NAD-dependent protein deacetylase sirtuin-1 (Homo sapiens) (UniProt Q96EB6); test: Inhibition of SIRT1 (unknown origin) assessed as reduction in enzyme-catalyzed desuccinylation reaction at 256 uM
T1 sequence (whole entry): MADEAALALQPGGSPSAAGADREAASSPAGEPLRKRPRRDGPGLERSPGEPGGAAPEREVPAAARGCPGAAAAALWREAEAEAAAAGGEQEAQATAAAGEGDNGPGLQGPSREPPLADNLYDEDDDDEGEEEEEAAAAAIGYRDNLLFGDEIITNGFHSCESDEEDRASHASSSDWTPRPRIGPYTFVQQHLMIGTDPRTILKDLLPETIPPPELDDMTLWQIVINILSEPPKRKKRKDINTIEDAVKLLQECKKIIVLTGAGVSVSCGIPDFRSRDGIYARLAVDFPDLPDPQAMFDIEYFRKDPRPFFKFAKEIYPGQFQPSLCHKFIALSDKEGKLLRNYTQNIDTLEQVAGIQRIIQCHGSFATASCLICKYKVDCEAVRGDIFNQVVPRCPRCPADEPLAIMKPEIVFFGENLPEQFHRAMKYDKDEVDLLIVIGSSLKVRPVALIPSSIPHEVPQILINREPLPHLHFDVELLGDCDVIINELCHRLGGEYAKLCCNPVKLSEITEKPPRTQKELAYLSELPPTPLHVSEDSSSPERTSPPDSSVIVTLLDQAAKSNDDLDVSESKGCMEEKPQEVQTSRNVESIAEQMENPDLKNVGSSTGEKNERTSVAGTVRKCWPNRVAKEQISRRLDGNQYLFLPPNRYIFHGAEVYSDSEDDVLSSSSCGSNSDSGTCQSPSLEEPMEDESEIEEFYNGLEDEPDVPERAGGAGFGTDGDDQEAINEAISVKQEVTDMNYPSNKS

[2] = molecular target: T2, NAD-dependent protein deacetylase sirtuin-2 (Homo sapiens) (UniProt Q8IXJ6); test: Inhibition of SIRT2 (unknown origin) assessed as reduction in enzyme-catalyzed desuccinylation reaction at 256 uM
T2 sequence (whole entry): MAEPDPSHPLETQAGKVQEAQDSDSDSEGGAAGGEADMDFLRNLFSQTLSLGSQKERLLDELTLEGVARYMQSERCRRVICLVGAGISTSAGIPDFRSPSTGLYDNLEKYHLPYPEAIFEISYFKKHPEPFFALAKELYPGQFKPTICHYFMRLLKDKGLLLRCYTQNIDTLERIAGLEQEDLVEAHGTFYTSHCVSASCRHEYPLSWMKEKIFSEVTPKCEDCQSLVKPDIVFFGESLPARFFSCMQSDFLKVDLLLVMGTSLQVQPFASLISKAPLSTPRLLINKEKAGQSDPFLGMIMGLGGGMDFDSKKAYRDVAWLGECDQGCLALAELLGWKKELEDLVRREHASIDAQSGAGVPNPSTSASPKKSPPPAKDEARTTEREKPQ

[3] = molecular target: T3, NAD-dependent protein deacetylase sirtuin-1 (Homo sapiens, UniProt Q96EB6); test: Inhibition of SIRT1 (unknown origin) assessed as reduction in enzyme-catalyzed desuccinylation reaction
T3 sequence (Q96EB6 whole entry): T1 sequence (whole entry)

[4] = molecular target: T4, NAD-dependent protein deacetylase sirtuin-2 (Homo sapiens, UniProt Q8IXJ6); test: Inhibition of SIRT2 (unknown origin) assessed as reduction in enzyme-catalyzed desuccinylation reaction
T4 sequence (Q8IXJ6 whole entry): T2 sequence (whole entry)

[5] = molecular target: T5, NAD-dependent protein deacetylase sirtuin-3, mitochondrial (Homo sapiens, UniProt Q9NTG7); test: Inhibition of SIRT3 (unknown origin) assessed as reduction in enzyme-catalyzed desuccinylation reaction
T5 sequence (Q9NTG7 whole entry): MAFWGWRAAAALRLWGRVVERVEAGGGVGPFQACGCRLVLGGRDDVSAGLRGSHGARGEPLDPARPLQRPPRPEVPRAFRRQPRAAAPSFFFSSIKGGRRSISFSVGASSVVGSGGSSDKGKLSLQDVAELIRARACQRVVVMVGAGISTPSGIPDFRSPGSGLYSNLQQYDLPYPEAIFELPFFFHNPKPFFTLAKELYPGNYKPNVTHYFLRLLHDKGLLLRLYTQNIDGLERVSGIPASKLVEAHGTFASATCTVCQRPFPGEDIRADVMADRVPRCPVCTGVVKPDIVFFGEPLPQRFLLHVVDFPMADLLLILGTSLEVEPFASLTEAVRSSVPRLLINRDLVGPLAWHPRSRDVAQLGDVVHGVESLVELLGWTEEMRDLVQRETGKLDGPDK

MCF7 [6] = test: Growth inhibition of human MCF7 cells at 25 uM incubated for 10 days by crystal violet staining based assay; assay type: functional, cell-based
[7] = molecular target: NAD-dependent protein deacylase sirtuin-5, mitochondrial (Homo sapiens) (UniProt Q9NXA8); test: Mechanism based inhibition of SIRT5 (unknown origin) incubated in presence of NAD for 15 mins by liquid chromatography-mass spectrometry method
[8] = molecular target: NAD-dependent protein deacylase sirtuin-5, mitochondrial (Homo sapiens) (UniProt Q9NXA8); test: (§1) Substrate activity at SIRT5 (unknown origin) assessed as compound-NAD covalent intermediate formation by measuring 2-((2R,3R,4S,5R)-5-((((((2R,3S,4R,5R)-5-(6-amino-9H-purin-9-yl)-3,4-dihydroxytetrahydrofuran-2-yl)methoxy)(hydroxy)phosphoryloxy)(hydroxy)phosphoryloxy)methyl)-3,4-dihydroxytetrahydrofuran-2-yl)-1-((S)-5-(benzyloxycarbonylamino)-6-oxo-6-(phenylamino)hexyl)-3-(2-carboxyethyl)isothiouronium level measured after 15 mins by liquid chromatography-mass spectrometry method
[9] = molecular target: NAD-dependent protein deacylase sirtuin-5, mitochondrial (Homo sapiens) (UniProt Q9NXA8); test: (§2) Substrate activity at SIRT5 (unknown origin) assessed as compound-NAD covalent intermediate formation by measuring 3-((3aR,5R,6R,6aR)-5-((((((2R,3S,4R,5R)-5-(6-amino-9H-purin-9-yl)-3,4-dihydroxytetrahydrofuran-2-yl)methoxy)(hydroxy)phosphoryloxy)(hydroxy)phosphoryloxy)methyl)-2-((S)-5-(benzyloxycarbonylamino)-6-oxo-6-(phenylamino)hexylamino)-6-hydroxytetrahydrofuro[2,3-d][1,3]oxathiol-2-ylamino)propanoic acid level measured after 15 mins by liquid chromatography-mass spectrometry method
[10] = molecular target: NAD-dependent protein deacylase sirtuin-5, mitochondrial (Homo sapiens) (UniProt Q9NXA8); test: (§3) Substrate activity at SIRT5 (unknown origin) assessed as compound-NAD covalent intermediate formation by measuring 2-((2R,3R,4R,5R)-5-((((((2R,3S,4R,5R)-5-(6-amino-9H-purin-9-yl)-3,4-dihydroxytetrahydrofuran-2-yl)methoxy)(hydroxy)phosphoryloxy)(hydroxy)phosphoryloxy)methyl)-4-hydroxy-2-mercaptotetrahydrofuran-3-yl)-1-((S)-5-(benzyloxycarbonylamino)-6-oxo-6-(phenylamino)hexyl)-3-(2-carboxyethyl)isouronium level measured after 15 mins by liquid chromatography-mass spectrometry method
[11] = molecular target: NAD-dependent protein deacylase sirtuin-5, mitochondrial (Homo sapiens) (UniProt Q9NXA8); test: as §1, with “5 hrs” for “15 mins”
[12] = molecular target: NAD-dependent protein deacylase sirtuin-5, mitochondrial (Homo sapiens) (UniProt Q9NXA8); test: as §2, with “5 hrs” for “15 mins”
[13] = molecular target: NAD-dependent protein deacylase sirtuin-5, mitochondrial (Homo sapiens) (UniProt Q9NXA8); test: as §3, with “7 hrs” for “15 mins”
[14] = molecular target: NAD-dependent protein deacylase sirtuin-5, mitochondrial (Homo sapiens) (UniProt Q9NXA8); test: Substrate activity at SIRT5 (unknown origin) assessed as compound-NAD covalent intermediate formation by measuring parent compound consumption measured after 18 hrs by liquid chromatography-mass spectrometry method
[15] = molecular target: NAD-dependent protein deacylase sirtuin-5, mitochondrial (Homo sapiens) (UniProt Q9NXA8); test: Substrate activity at SIRT5 (unknown origin) assessed as compound-NAD covalent intermediate formation by measuring (S)-3,11-dioxo-1-phenyl-5-(phenylcarbamoyl)-2-oxa-4,10,12-triazapentadecan-15-oic acid level measured after 18 hrs by liquid chromatography-mass spectrometry method
[16] = molecular target: NAD-dependent protein deacylase sirtuin-5, mitochondrial (Homo sapiens) (UniProt Q9NXA8); test: Inhibition of SIRT5 in human HeLa cells assessed as increase in protein succinylation level at 100 uM after 24 to 48 hrs by Western blot analysis; assay type: cell-based
[17] = molecular target: NAD-dependent protein deacylase sirtuin-5, mitochondrial (Homo sapiens) (UniProt Q9NXA8); test: Inhibition of SIRT5 in human MCF7 cells assessed as increase in protein succinylation level at 100 uM after 48 to 72 hrs by Western blot analysis; assay type: cell-based
MDA-MB-231 = test: Inhibition of foci formation in human MDA-MB-231 cells at 10 to 100 uM; assay type: functional, cell-based
MDA-MB-468 = test: Inhibition of foci formation in human MDA-MB-468 cells at 10 to 100 uM; assay type: functional, cell-based
MCF7 [18] = test: Inhibition of foci formation in human MCF7 cells at 10 to 100 uM; assay type: functional, cell-based
[19] = molecular target: NAD-dependent protein deacylase sirtuin-5, mitochondrial (Homo sapiens) (UniProt Q9NXA8); test: Inhibition of SIRT5 (unknown origin) assessed as reduction in enzyme-catalyzed desuccinylation reaction at 200 uM
[20] = molecular target: NAD-dependent protein deacylase sirtuin-6 (Homo sapiens, UniProt Q8N6T7); test: Inhibition of SIRT6 (unknown origin) assessed as reduction in enzyme-catalyzed desuccinylation reaction
Sequence of NAD-dependent protein deacylase sirtuin-6 (Q8N6T7 whole entry): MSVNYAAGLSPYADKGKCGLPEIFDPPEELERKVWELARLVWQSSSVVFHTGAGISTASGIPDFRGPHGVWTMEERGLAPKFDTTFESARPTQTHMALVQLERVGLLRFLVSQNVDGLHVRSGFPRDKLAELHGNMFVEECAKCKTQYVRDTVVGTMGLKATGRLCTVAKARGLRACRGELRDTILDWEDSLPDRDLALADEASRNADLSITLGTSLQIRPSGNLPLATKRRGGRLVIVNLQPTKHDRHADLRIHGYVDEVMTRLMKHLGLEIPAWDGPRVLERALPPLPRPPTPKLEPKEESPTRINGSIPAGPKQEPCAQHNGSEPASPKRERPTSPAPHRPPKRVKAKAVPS

Sequence of NAD-dependent protein deacylase sirtuin-5, mitochondrial (Homo sapiens) (Q9NXA8 37-310 limits assumed): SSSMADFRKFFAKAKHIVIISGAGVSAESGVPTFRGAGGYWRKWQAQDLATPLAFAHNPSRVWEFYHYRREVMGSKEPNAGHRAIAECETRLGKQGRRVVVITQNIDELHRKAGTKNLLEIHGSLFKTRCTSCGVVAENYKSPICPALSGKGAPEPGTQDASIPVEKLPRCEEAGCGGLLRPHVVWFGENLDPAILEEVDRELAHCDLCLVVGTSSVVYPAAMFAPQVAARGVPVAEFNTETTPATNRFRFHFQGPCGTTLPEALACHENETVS

O=C(O)CCC(=S)NCCCC[C@H](NC(=O)OCc1ccccc1)C(=O)Nc1ccccc1
inhibition [1]: inactive
inhibition [2]: inactive

O=C(O)CCNC(=S)NCCCC[C@H](NC(=O)OCc1ccccc1)C(=O)Nc1cccc(O)c1
IC50 [3]: Not Active
IC50 [4]: Not Active
IC50 [5]: Not Active

O=C(O)CCNC(=S)NCCCC[C@H](NC(=O)OCc1ccccc1)C(=O)NC1CCSc2ccccc21 (some centres not stated)
growth inhibition (GI) (MCF7 [6]): inactive
IC50 [3]: Not Active
IC50 [4]: Not Active
IC50 [5]: Not Active

O=C(O)CC(=S)NCCCC[C@H](NC(=O)OCc1ccccc1)C(=O)Nc1ccccc1
inhibition [1]: inactive
inhibition [2]: inactive
inhibition [7]: Active
Activity [8]: Active
Activity [9]: Active
Activity [10]: Active
Activity [11]: Active
Activity [12]: Active
Activity [13]: Active
Activity [14]: Active
Activity [15]: Active

O=C(O)CCCC(=S)NCCCC[C@H](NC(=O)OCc1ccccc1)C(=O)Nc1ccccc1
inhibition [1]: inactive
inhibition [2]: inactive
Activity [14]: inactive

CCOC(=O)CCNC(=S)NCCCC[C@H](NC(=O)OCc1ccccc1)C(=O)NC1CCSc2ccccc21 (some centres not stated)
inhibition [16]: Active
growth inhibition (GI) (MCF7 [6]): Active

CCOC(=O)CCNC(=S)NCCCC[C@H](NC(=O)OCc1ccccc1)C(=O)Nc1cccc(O)c1
inhibition [17]: Active
inhibition (MDA-MB-231): Dose-dependent effect
inhibition (MDA-MB-468): Dose-dependent effect
inhibition (MCF7 [18]): Dose-dependent effect
IC50 [5]: Not Active
inhibition [19]: 20%
IC50 [20]: Not Active
